# In US9539252B2, “Piperazine-substituted benzothiophene derivatives as antipsychotic agents” (OTSUKA PHARMACEUTICAL CO., LTD., priority 2011, dated 2017):
# Assay: physchem
# Conditions: oil or lipid, thermodynamic from solid
# Experimental: (§1) Each of the Example compounds was examined for the solubility in oil (sesame oil, benzyl benzoate).
# (§2) For the specific gravity of an oil, the following values were applied. • sesame oil (specific gravity: 0.914-0.921) • benzyl benzoate (specific gravity: 1.123) • (Method)
# (§3) Example compound is measured in a microtube and an oil (sesame oil, or, benzyl benzoate) in an amount to make the concentration 10 mg/0.1 ml is added. After stirring, the solubility is evaluated by visual observation. When the compound is not dissolved, the mixture is heated, and the solubility is evaluated after cooling.
row,SMILES,solubility [mg/mL]
1,"O=C(Cc1ccccc1)OCN1C(=O)CCc2ccc(OCCCCN3CCN(c4cccc5sccc45)CC3)cc21 [Example 25, phenylacetic acid 7-[4-(4-benzo[b]thiophen-4-ylpiperazin-1-yl)butoxy]-2-oxo-3,4-dihydro-2H-quinolin-1-ylmethyl ester]",> 100
2,"O=C(Cc1ccccc1)OCn1c(=O)ccc2ccc(OCCCCN3CCN(c4cccc5sccc45)CC3)cc21 [Example 26, phenylacetic acid 7-[4-(4-benzo[b]thiophen-4-ylpiperazin-1-yl)butoxy]-2-oxo-2H-quinolin-1-ylmethyl ester]",> 100

# Assay: Solubility in oil (sesame oil, benzyl benzoate), visual observation
# Conditions: benzyl benzoate, oil or lipid, thermodynamic from solid
# Experimental: as §1, §2, §3
row,SMILES,solubility [mg/mL]
1,"O=C(OCN1C(=O)CCc2ccc(OCCCCN3CCN(c4cccc5sccc45)CC3)cc21)OC1CCCCC1 [Example 150, carbonic acid 7-[4-(4-benzo[b]thiophen-4-ylpiperazin-1-yl)butoxy]-2-oxo-3,4-dihydro-2H-quinolin-1-ylmethyl ester cyclohexyl ester]",> 100
2,"CCCCC(C)(C)C(=O)OCN1C(=O)CCc2ccc(OCCCCN3CCN(c4cccc5sccc45)CC3)cc21 [Example 84, 2,2-dimethylhexanoic acid 7-[4-(4-benzo[b]thiophen-4-ylpiperazin-1-yl)butoxy]-2-oxo-3,4-dihydro-2H-quinolin-1-ylmethyl ester]",> 100
3,"CCCCCCCCCCCC(=O)OCn1c(=O)ccc2ccc(OCCCCN3CCN(c4cccc5sccc45)CC3)cc21 [Example 22, dodecanoic acid 7-[4-(4-benzo[b]thiophen-4-ylpiperazin-1-yl)butoxy]-2-oxo-2H-quinolin-1-ylmethyl ester]",> 100
4,"O=C(NC1CCCCC1)OCn1c(=O)ccc2ccc(OCCCCN3CCN(c4cccc5sccc45)CC3)cc21 [Example 71, N-cyclohexylcarbamic acid 7-[4-(4-benzo[b]thiophen-4-ylpiperazin-1-yl)butoxy]-2-oxo-2H-quinolin-1-ylmethyl ester]",> 100
5,"CCCCCCCCCCCCCCCCC(=O)OCn1c(=O)ccc2ccc(OCCCCN3CCN(c4cccc5sccc45)CC3)cc21 [Example 108, heptadecanoic acid 7-[4-(4-benzo[b]thiophen-4-ylpiperazin-1-yl)butoxy]-2-oxo-2H-quinolin-1-ylmethyl ester]",> 100
6,"C=CCCCCCCCCC(=O)OCN1C(=O)CCc2ccc(OCCCCN3CCN(c4cccc5sccc45)CC3)cc21 [Example 114, undec-10-enoic acid 7-[4-(4-benzo[b]thiophen-4-ylpiperazin-1-yl)butoxy]-2-oxo-3,4-dihydro-2H-quinolin-1-ylmethyl ester]",> 100
7,"O=C(OCn1c(=O)ccc2ccc(OCCCCN3CCN(c4cccc5sccc45)CC3)cc21)N1CCCCC1 [Example 10, piperidine-1-carboxylic acid 7-[4-(4-benzo[b]thiophen-4-ylpiperazin-1-yl)butoxy]-2-oxo-2H-quinolin-1-ylmethyl ester]",> 100
8,"CCCCCCCCCCCC(=O)Oc1ccc2ccc(OCCCCN3CCN(c4cccc5sccc45)CC3)cc2n1 [Example 379, 7-[4-(4-benzo[b]thiophen-4-yl-piperazin-1-yl)-butoxy]-quinolin-2-yl dodecanoate]",> 100
9,"CCCCNC(=O)OCN1C(=O)CCc2ccc(OCCCCN3CCN(c4cccc5sccc45)CC3)cc21 [Example 27, N-butylcarbamic acid 7-[4-(4-benzo[b]thiophen-4-ylpiperazin-1-yl)butoxy]-2-oxo-3,4-dihydro-2H-quinolin-1-ylmethyl ester]",> 100
10,"CCCCCC(CCCCC)C(=O)OCn1c(=O)ccc2ccc(OCCCCN3CCN(c4cccc5sccc45)CC3)cc21 [Example 54, 2-pentylheptanoic acid 7-[4-(4-benzo[b]thiophen-4-ylpiperazin-1-yl)butoxy]-2-oxo-2H-quinolin-1-ylmethyl ester]",> 100
11,"COCCNC(=O)OCN1C(=O)CCc2ccc(OCCCCN3CCN(c4cccc5sccc45)CC3)cc21 [Example 97, N-(2-methoxyethyl)carbamic acid 7-[4-(4-benzo[b]thiophen-4-ylpiperazin-1-yl)butoxy]-2-oxo-3,4-dihydro-2H-quinolin-1-ylmethyl ester]",> 100
12,"CC(C)CCC(=O)OCn1c(=O)ccc2ccc(OCCCCN3CCN(c4cccc5sccc45)CC3)cc21 [Example 126, 4-methylpentanoic acid 7-[4-(4-benzo[b]thiophen-4-ylpiperazin-1-yl)butoxy]-2-oxo-2H-quinolin-1-ylmethyl ester]",> 100

# Same assay, conditions: sesame oil, oil or lipid, thermodynamic from solid
row,SMILES,solubility [mg/mL]
1,"O=C(OCN1C(=O)CCc2ccc(OCCCCN3CCN(c4cccc5sccc45)CC3)cc21)OC1CCCCC1 [Example 150, carbonic acid 7-[4-(4-benzo[b]thiophen-4-ylpiperazin-1-yl)butoxy]-2-oxo-3,4-dihydro-2H-quinolin-1-ylmethyl ester cyclohexyl ester]",> 100
2,"CCCCCCCCCCCC(=O)Oc1ccc2ccc(OCCCCN3CCN(c4cccc5sccc45)CC3)cc2n1 [Example 379, 7-[4-(4-benzo[b]thiophen-4-yl-piperazin-1-yl)-butoxy]-quinolin-2-yl dodecanoate]",> 100
